Assay type in all cases: cell-based
Test [1] concerns the target DOR (Homo sapiens, UniProt P41143). The test can be described thus: High content imaging β-arrestin translocation assay, DOR antagonist (DOR HCS). Conditions: antagonist; average; read-out: Potency, Antitarget DOR HCS. An excerpt:
(§1) In this campaign, two assay platforms were employed to evaluate KOR activity and selectivity: the KOR1 DISCOVERX β-Arrestin […] assay and an imaging based β-arrestin translocation assay for confirmatory and selectivity assays. The KOR1 DISCOVERX β-Arrestin […] assay is a commercial platform for direct measurement of GPCR (G protein-coupled receptor) activation by detection of β-Arrestin binding to the KOR. […] In cells that stably express these fusion proteins, ligand stimulation results in the recruitment of β-Arrestin by the GPCR. This interaction encourages the complementation of the two β-galactosidase fragments resulting in the formation of a functional enzyme that converts substrate in the assay medium to a detectable signal. The imaging based high-content β-arrestin translocation assay is based upon the redistribution of β-Arrestin linked to green fluorescent protein (GFP) to the cell surface and detection (Barak, et al. (1997) J. Biol. Chem. 272:27497-27500).
(§2) Initially, a portion (approximately 290,000 compounds) of the MLSMR compound collection was tested in the KOR1 DISCOVERX β-arrestin primary kappa opioid (KOP) agonist and antagonist screens (PUBCHEM AID 1777 and 1778, respectively) at a single concentration point (10 μM). […] These compounds were concurrently tested in a β-galactosidase counterscreen assay (PUBCHEM AID 1966) to assess the possibility that these compounds might inhibit the reporting enzyme. […] The KOR:DOR:MOR selectivity of the compounds was determined using the analogous β-arrestin translocation assays for the DOR (PUBCHEM AID 2370 and 2357, for agonists and antagonist, respectively) and the MOR (PUBCHEM AID 2352 and 2420, for agonists and antagonists, respectively).

The target of test [2] is T1, KOR (Homo sapiens, UniProt P41145). The test is described as follows: High content imaging β-arrestin translocation assay, KOR antagonist (KOR HCS).
T1 sequence (P41145 whole entry): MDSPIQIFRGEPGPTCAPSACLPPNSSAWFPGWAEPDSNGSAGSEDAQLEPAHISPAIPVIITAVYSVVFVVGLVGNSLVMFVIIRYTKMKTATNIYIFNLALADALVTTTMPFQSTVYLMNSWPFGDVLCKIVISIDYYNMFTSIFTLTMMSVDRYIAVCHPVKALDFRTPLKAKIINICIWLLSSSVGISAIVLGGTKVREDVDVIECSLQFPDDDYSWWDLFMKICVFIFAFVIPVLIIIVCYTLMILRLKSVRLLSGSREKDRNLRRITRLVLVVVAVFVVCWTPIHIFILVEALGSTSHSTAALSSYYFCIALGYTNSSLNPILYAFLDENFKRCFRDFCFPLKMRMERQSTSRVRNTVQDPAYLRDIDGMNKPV
Description: as §1, §2

Test [3] concerns the target T2, MOR (Homo sapiens, UniProt P35372). The test is described as follows: High content imaging β-arrestin translocation assay, MOR antagonist (MOR HCS). The settings on record: antagonist; average; read-out: Potency, Antitarget MOR HCS.
Description: as §1, §2

The target in test [4] is T1, KOR. The test can be described thus: KOR1 DISCOVERX β-Arrestin […] assay, antagonist mode (KOR DRX).
Description: as §1, §2

Test [5] addresses T2, MOR. The test can be described thus: High content imaging based β-arrestin translocation assay, MOR agonist (MOR HCS). The settings on record: n = 2, read-out: Average Potency MOR HCS.
Description: as §1, §2

Test [6] addresses T1, KOR. The test is described as follows: DISCOVERX β-arrestin […] assay, agonist mode (KOR DRx). The settings on record: for EC50: agonist, n = 3, read-out: Average Potency KOR DRx; for Emax (%): at highest concentration tested, compared to dynorphin A (Emax=100%).
Description: as §1, with “signal.” for “signal. The imaging based high-content β-arrestin translocation assay is based upon the redistribution of β-Arrestin linked to green fluorescent protein (GFP) to the cell surface and detection (Barak, et al. (1997) J. Biol. Chem. 272:27497-27500).”

The target of test [7] is T1, KOR. The test can be described thus: High content imaging based β-arrestin translocation assay, KOR agonist (KOR HCS). The settings on record: n = 2, read-out: Average Potency KOR HCS.
Description: as §1, §2

Setting [8] is: antagonist, average, read-out: Potency, Target KOR HCS.
Where [9] appears, read: antagonist, average, read-out: Potency, Target KOR DRX.

DOR, sequence (P41143 whole entry, the tested form may be a part): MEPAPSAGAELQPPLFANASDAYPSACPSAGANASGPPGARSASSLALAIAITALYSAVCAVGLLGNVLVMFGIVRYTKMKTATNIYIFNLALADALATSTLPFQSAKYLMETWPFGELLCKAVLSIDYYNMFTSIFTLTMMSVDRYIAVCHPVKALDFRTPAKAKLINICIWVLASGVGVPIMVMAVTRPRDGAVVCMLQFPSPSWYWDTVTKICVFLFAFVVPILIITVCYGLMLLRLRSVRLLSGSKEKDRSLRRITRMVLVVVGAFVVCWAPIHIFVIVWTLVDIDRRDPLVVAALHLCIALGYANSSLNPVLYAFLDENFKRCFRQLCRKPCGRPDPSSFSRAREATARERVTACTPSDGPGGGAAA
T2 sequence (P35372 whole entry): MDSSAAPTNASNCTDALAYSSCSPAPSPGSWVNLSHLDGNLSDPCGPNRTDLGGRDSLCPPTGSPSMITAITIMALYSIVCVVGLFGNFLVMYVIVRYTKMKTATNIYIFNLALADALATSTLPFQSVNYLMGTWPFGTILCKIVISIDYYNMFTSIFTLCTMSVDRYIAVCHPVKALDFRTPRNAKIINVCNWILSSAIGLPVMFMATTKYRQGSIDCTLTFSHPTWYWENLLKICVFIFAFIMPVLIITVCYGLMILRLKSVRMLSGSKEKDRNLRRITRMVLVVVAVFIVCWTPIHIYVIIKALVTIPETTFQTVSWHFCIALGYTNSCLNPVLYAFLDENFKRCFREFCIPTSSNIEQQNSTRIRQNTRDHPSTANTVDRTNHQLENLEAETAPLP

For the compound `COc1ccc(N2CCN(CCCNC(=O)Cn3c(=O)c4cccn4c4ccccc43)CC2)cc1` [1{2}], the IC50 in test [1] is > 32 µM; in test [2] (setting [8]), 15.3 µM; in test [3], > 32 µM; in test [4] (setting [9]) it was 4.32 µM.
Regarding `COc1ccc(N2CCN(CCCNC(=O)Cn3c(=O)c4cccn4c4c(C)ccnc43)CC2)c(OC)c1` [1{4}], the IC50 in test [1] was > 32 µM; in test [2] (setting [8]), 0.004 µM; in test [3], 30.9 µM; in test [4] (setting [9]), 0.19 µM.
As to `Cc1ccnc2c1n1cccc1c(=O)n2CC(=O)NCCCN1CCN(c2ccc3c(c2)OCO3)CC1` [1{5}], the IC50 was > 32 µM in test [1], 0.045 µM in test [2] (setting [8]), 17.2 µM in test [3] and 0.43 µM in test [4] (setting [9]).
`Cc1ccc(N2CCN(CCCNC(=O)Cn3c(=O)c4cccn4c4c(C)ccnc43)CC2)cc1` [1{7}]: the IC50 is > 32 µM in test [1], 2.28 µM in test [2] (setting [8]), > 32 µM in test [3] and 0.88 µM in test [4] (setting [9]).
As for `Cc1ccnc2c1n1cccc1c(=O)n2CC(=O)NCCCN1CCN(c2ccccc2)CC1` [1{8}], the IC50 in test [1] was > 32 µM; in test [2] (setting [8]), 2.56 µM; in test [3] it was 22.5 µM; in test [4] (setting [9]), 4.95 µM.
In the same order, the values of `COc1ccc(N2CCN(CCCNC(=O)Cn3c(=O)c4cccn4c4cccnc43)CC2)c(OC)c1` [1{9}] are > 32 µM, 0.49 µM, 10.8 µM and 2.65 µM.
For the compound `Cc1ccc(N2CCN(CCCNC(=O)Cn3c(=O)c4cccn4c4cccnc43)CC2)cc1` [1{12}], the IC50 in test [1] is > 32 µM; in test [2] (setting [8]), 0.89 µM; in test [3], 18.8 µM; in test [4] (setting [9]), 3.68 µM.
With `COc1ccc(N2CCN(CCCNC(=O)Cn3c(=O)c4cccn4c4cc(Br)cnc43)CC2)cc1` [1{14}], the IC50 is > 32 µM in test [1], 0.69 µM in test [2] (setting [8]), 10.3 µM in test [3] and 3.05 µM in test [4] (setting [9]).
As for `COc1ccc(N2CCN(CCCNC(=O)Cn3c(=O)c4cccn4c4cc(Br)cnc43)CC2)c(OC)c1` [1{16}], the IC50 was > 32 µM in test [1], 3.02 µM in test [2] (setting [8]), 10.2 µM in test [3] and 2.82 µM in test [4] (setting [9]).
For the compound `Cc1ccc(Cl)cc1N1CCN(CCCNC(=O)Cn2c(=O)c3cccn3c3cccnc32)CC1` [1{24}], the IC50 in test [1] is > 32 µM; in test [2] (setting [8]), > 32 µM; in test [3], 3.98 µM; in test [4] (setting [9]), > 20 µM.
Turning to `Cc1cccc(N2CCN(CCNC(=O)Cn3c(=O)c4cccn4c4cccnc43)CC2)c1C` [1{25}], the IC50 in test [1] is > 32 µM; in test [2], > 32 µM; in test [4], > 20 µM.
As for `COc1ccc(N2CCN(CCNC(=O)Cn3c(=O)c4cccn4c4c(C)ccnc43)CC2)cc1` [1{26}], the IC50 in test [1], in test [2] and in test [3] was > 32 µM throughout.
For `COc1ccc(N2CCN(CCCCNC(=O)Cn3c(=O)c4cccn4c4c(C)ccnc43)CC2)cc1` [1{27}], the IC50 in test [1] is > 32 µM; in test [2] (setting [8]), 0.005 µM; in test [3], > 32 µM; in test [4] (setting [9]), 1.25 µM.
For `Cc1ccnc2c1n1cccc1c(=O)n2CC(=O)NCCCN1CCN(c2ccc(Cl)cc2)CC1` [Compound 1{6}], the IC50 is > 32 µM in test [1], 0.07 µM in test [2] (setting [8]), > 32 µM in test [3] and 0.69 µM in test [4] (setting [9]).
Consider `O=C(Cn1c(=O)c2cccn2c2cccnc21)NCCCN1CCN(c2ccc3c(c2)OCO3)CC1` [Compound 1{10}], for which the IC50 was > 32 µM in test [1], 0.78 µM in test [2] (setting [8]), > 32 µM in test [3] and 4.23 µM in test [4] (setting [9]).
Turning to `O=C(Cn1c(=O)c2cccn2c2cccnc21)NCCCN1CCN(c2ccc(Cl)cc2)CC1` [Compound 1{11}], the IC50 in test [1] was > 32 µM; in test [2] (setting [8]) it was 0.096 µM; in test [3] it was > 32 µM; in test [4] (setting [9]), 5.18 µM.
Take `O=C(Cn1c(=O)c2cccn2c2cccnc21)NCCCN1CCN(c2ccccc2)CC1` [Compound 1{13}]: the IC50 is > 32 µM in test [1], 12.7 µM in test [2] (setting [8]), > 32 µM in test [3] and > 20 µM in test [4] (setting [9]).
With `O=C(Cn1c(=O)c2cccn2c2cc(Br)cnc21)NCCCN1CCN(c2ccc(Cl)cc2)CC1` [Compound 1{15}], the IC50 was > 32 µM in test [1], > 32 µM in test [2] (setting [8]), 5.32 µM in test [3] and > 20 µM in test [4] (setting [9]).
On to `O=C(Cn1c(=O)c2cccn2c2cc(Br)cnc21)NCCCN1CCN(c2ccc3c(c2)OCO3)CC1` [Compound 1{17}], for which the IC50 in test [1] was > 32 µM; in test [2] (setting [8]), 0.15 µM; in test [3], > 32 µM; in test [4] (setting [9]), 3.11 µM.
`O=C(Cn1c(=O)c2cccn2c2cccnc21)NCCCN1CCC(Cc2ccccc2)CC1` [Compound 1{22}]: the figures for the IC50 in test [1], in test [3] and in test [4] (setting [9]) were > 32 µM, > 32 µM and 4.78 µM, respectively.
`COC(=O)c1ccc(CSc2nnc(-c3ccccn3)n2Cc2cccs2)cc1` [Compound 2{30}]: the EC50 in test [5] is > 32 µM; in test [6] it was 6.14 µM; in test [7], 6 µM. For the same compound, the “Emax (%)” value in test [6] is ~154%.
Regarding `CC(=O)Oc1ccc(CSc2nnc(-c3ccccn3)n2Cc2ccco2)cc1` [Compound 2{31}], the EC50 in test [5] is > 32 µM; in test [6], > 20 µM; in test [7] it was > 32 µM.
In the case of `CC(=O)Oc1ccc(CSc2nnc(-c3ccccn3)n2Cc2cccs2)cc1` [Compound 2{32}], the EC50 in test [5] is > 32 µM; in test [6], > 20 µM; in test [7], > 32 µM.
For the compound `CC(C)c1ccc(CSc2nnc(-c3ccccn3)n2Cc2ccco2)cc1` [Compound 2{33}], the EC50 is > 32 µM in test [5], 5.97 µM in test [6] and 2.8 µM in test [7]. The “Emax (%)” value in test [6] is 165%.
In the same order, the values of `COc1cccc(CSc2nnc(-c3ccccn3)n2Cc2cccs2)c1` [Compound 2{38}] are > 32 µM, 8.72 µM, 12.2 µM and ~100%.
In the same order, the values of `Cc1c(CSc2nnc(-c3ccccn3)n2Cc2ccco2)cccc1[N+](=O)[O-]` [Compound 2{39}] are > 32 µM, 8.21 µM, 12 µM and ~128%.
As to `Cc1c(CSc2nnc(-c3ccccn3)n2Cc2cccs2)cccc1[N+](=O)[O-]` [Compound 2{40}], the EC50 was > 32 µM in test [5], 5.81 µM in test [6] and 4.2 µM in test [7]. Besides, the “Emax (%)” value in test [6] is listed as ~105%.
In the same order, the values of `Fc1ccc(CSc2nnc(-c3ccccn3)n2Cc2ccco2)c(F)c1F` [Compound 2{43}] are > 32 µM, 7 µM, 5.3 µM and ~140%.
On to `Fc1ccc(CSc2nnc(-c3ccccn3)n2Cc2cccs2)c(F)c1F` [Compound 2{44}], for which the figures for the EC50 in test [5], in test [6] and in test [7] were > 32 µM, 3.04 µM and 1.7 µM, respectively. Moreover, the “Emax (%)” value in test [6] is on record as ~115%.
As for `Fc1ccc(CSc2nnc(-c3ccccn3)n2Cc2ccco2)c(C(F)(F)F)c1` [Compound 2{45}], the EC50 in test [5] is > 32 µM; in test [6] it was 8.27 µM; in test [7] it was 5.4 µM. Moreover, the “Emax (%)” value in test [6] is given as ~138%.
Take `Fc1ccc(CSc2nnc(-c3ccccn3)n2Cc2cccs2)c(C(F)(F)F)c1` [Compound 2{46}]: the EC50 is > 32 µM in test [5], 4.46 µM in test [6] and 2.25 µM in test [7]. Further, in test [6], the “Emax (%)” value is ~109%.
With `Clc1ccccc1CSc1nnc(-c2ccccn2)n1Cc1cccs1` [Compound 2{48}], the EC50 was > 32 µM in test [5], 10.2 µM in test [6] and 4.1 µM in test [7]. The “Emax (%)” value in test [6] is reported as ~100%.
